According to patent US20050084509A1, “Use of citric acid and low concentrations of alpha-hydroxy acids for superficial skin treatment” (priority 2003, published 2005):

Assays:
ichthyosis = conditions: in vivo; cited from earlier work
signs of photoaging = assay: citric acid versus glycolic acid at equal concentration and same pH; assay type: in vivo, human
skin = assay: low concentration citric acid peel self-administered in the home; assay type: in vivo, human
photodamaged skin = assay: citric acid peels on photodamaged skin (office peel study); conditions: 50 percent citric acid solution
[1] = two months after last treatment

SMILES: O=C(O)CC(O)(CC(=O)O)C(=O)O [citric acid]
- efficacy in treating ichthyosis (ichthyosis): highly effective
- reducing the signs of photoaging versus glycolic acid (signs of photoaging; equal concentration of glycolic acid at the same pH): more effective
- side effects versus glycolic acid (signs of photoaging; glycolic acid of the same concentration): side effects are less
- subjective assessment of fine lines, wrinkles, enlarged pores, and brown spots (skin; 10 percent citric acid solution, three treatments at two-week intervals, two months after third treatment): statistically significant improvement
- skin tolerance without neutralization (skin; ten percent citric acid): may be left on most people's skin without neutralization
- fine lines and wrinkles, photographs evaluated by blinded observers (photodamaged skin; 2-5 min, neutralized, peels at one month intervals, evaluated two months after last treatment): statistically significant improvement
- redness immediately following a peel (photodamaged skin; immediately after peel): increase in redness
- fine lines, wrinkles by Primos topographic image analysis (photodamaged skin; [1]): improvement in fine lines, wrinkles
- pore size by Primos topographic image analysis (photodamaged skin; [1]): reduction in pore size
- redness by cross-polarized photography (photodamaged skin; [1]): no dramatic change in redness
